Data reported in BigSolDB 2.1.

In the case of CCCCc1nc(Cl)c(CO)n1Cc1ccc(-c2ccccc2-c2nnn[n-]2)cc1.[K+], the solubility (mole fraction) (in cyclohexane, 293.15 K) is reported as 3.4e-05, the solubility (mole fraction) (in cyclohexane, 303.15 K) is reported as 2.87e-05 and the solubility (mole fraction) (in cyclohexane, 313.15 K) is reported as 3.05e-05. The solubility (mole fraction) (in cyclohexane, 323.15 K) was 2.72e-05, the solubility (mole fraction) (in cyclohexane, 333.15 K) was 2.88e-05 and the solubility (mole fraction) (in cyclohexane, 343.15 K) was 2.59e-05. It also gave a solubility (mole fraction) (in ethanol, 293.15 K) of 0.0381, a solubility (mole fraction) (in ethanol, 303.15 K) of 0.0473 and a solubility (mole fraction) (in ethanol, 313.15 K) of 0.0547. The solubility (mole fraction) (in ethanol, 323.15 K) was 0.0702, the solubility (mole fraction) (in ethanol, 333.15 K) was 0.0739 and the solubility (mole fraction) (in ethanol, 343.15 K) was 0.0785. It also gave a solubility (mole fraction) (in ethyl acetate, 293.15 K) of 0.00251, a solubility (mole fraction) (in ethyl acetate, 303.15 K) of 0.00152 and a solubility (mole fraction) (in ethyl acetate, 313.15 K) of 0.00252. For the same compound, the solubility (mole fraction) (in ethyl acetate, 323.15 K) was 0.00138, the solubility (mole fraction) (in ethyl acetate, 333.15 K) was 0.00288 and the solubility (mole fraction) (in ethyl acetate, 343.15 K) was 0.00279. The solubility (mole fraction) (in isopropanol, 293.15 K) was 0.0027, the solubility (mole fraction) (in isopropanol, 303.15 K) was 0.00279 and the solubility (mole fraction) (in isopropanol, 313.15 K) was 0.00413. The solubility (mole fraction) (in isopropanol, 323.15 K) was 0.00547, the solubility (mole fraction) (in isopropanol, 333.15 K) was 0.00696 and the solubility (mole fraction) (in isopropanol, 343.15 K) was 0.0117. The solubility (mole fraction) (in methanol, 293.15 K) was 0.0277, the solubility (mole fraction) (in methanol, 303.15 K) was 0.0375 and the solubility (mole fraction) (in methanol, 313.15 K) was 0.0445. For the same compound, the solubility (mole fraction) (in methanol, 323.15 K) was 0.0483, the solubility (mole fraction) (in methanol, 333.15 K) was 0.0508 and the solubility (mole fraction) (in methanol, 343.15 K) was 0.0533. The solubility (mole fraction) (in n-butyl acetate, 293.15 K) was 0.00271, the solubility (mole fraction) (in n-butyl acetate, 303.15 K) was 0.00238 and the solubility (mole fraction) (in n-butyl acetate, 313.15 K) was 0.000968. For the same compound, the solubility (mole fraction) (in n-butyl acetate, 323.15 K) was 0.00121, the solubility (mole fraction) (in n-butyl acetate, 333.15 K) was 0.00193 and the solubility (mole fraction) (in n-butyl acetate, 343.15 K) was 0.000907. For the same compound, the solubility (mole fraction) (in n-pentanol, 293.15 K) was 0.0446, the solubility (mole fraction) (in n-pentanol, 303.15 K) was 0.0311 and the solubility (mole fraction) (in n-pentanol, 313.15 K) was 0.0287. The solubility (mole fraction) (in n-pentanol, 323.15 K) was 0.0234, the solubility (mole fraction) (in n-pentanol, 333.15 K) was 0.0205 and the solubility (mole fraction) (in n-pentanol, 343.15 K) was 0.0218. It also gave a solubility (mole fraction) (in n-propanol, 293.15 K) of 0.026, a solubility (mole fraction) (in n-propanol, 303.15 K) of 0.0272 and a solubility (mole fraction) (in n-propanol, 313.15 K) of 0.0299. The solubility (mole fraction) (in n-propanol, 323.15 K) was 0.0376, the solubility (mole fraction) (in n-propanol, 333.15 K) was 0.0452 and the solubility (mole fraction) (in n-propanol, 343.15 K) was 0.0499.
